Test results reported in US8404650B2, “Methods of treating cancer with doxazolidine and prodrugs thereof” (priority 2005, dated 2013).
Read-outs that look alike come from different tables or passages of the source.

Assays:
[1] = test system: MCF-7; experiment: Growth inhibition of MCF-7 sensitive breast cancer cells (colony formation, crystal violet); format: cell-based, human
Protocol: (§1) In vitro Activity. […] This cell suspension was dispensed in 200 μL aliquots (1000 cells/well) into the inside wells of 96-well tissue culture plates. Outside wells contained 200 μL of media. […] The medium was replaced with 90 μL of growth medium prior to addition of the drug. Doxaz was dissolved in DMSO at concentrations ranging from 50 μM to 1 mM. […] Serial dilutions (1:3 and 1:10) were made in sterile DMSO to yield seven solutions of decreasing drug concentration at 100× the respective working concentrations. […] Additionally, two lanes were treated with 10 μL of growth medium containing 10% sterile DMSO and one lane was treated with 90 μL of 1.5 M Tris HCl. […]
(§2) Cell growth inhibition experiments initially focused on MCF-7, MCF-7/Adr, SK-HEP-1, and Hep G2 cancer cells as well as rat cardiomyocytes as a measure of cardiotoxicity and Vero cells (green monkey kidney cells) as an additional measure of normal cell toxicity.
(§3) Activity of plasmin-activated prodrugs.
(§4) A more thorough characterization of the growth inhibition of a variety of cancer cells as well as rat cardiomyocytes by Formula IV (aFK-PABC-Doxaz) was evaluated in comparison with inhibition of growth by Doxaz, Dox and aFK-PABC-Dox. Cells were treated with drug for 3 h and colony growth was measured at 3 to 5 days when cells reached about 80% confluence. […] The breast cancer cell lines represent the multi-drug resistant (MDR) phenotype with MCF-7/Adr cells and a cell line that is transfected with the gene for urokinase plasminogen activator (uPA), the primary enzyme responsible for cleavage of plasminogen to plasmin. Rat cardiomyocytes served as a model for comparison of drug cardiotoxicity.

[2] = test system: SK-HEP-1; experiment: Growth inhibition of SK-HEP-1 liver cancer cells; format: cell-based, human; conditions: crystal violet; for Growth inhibition IC50, SK-HEP-1, 24 h: 24 h drug treatment
Source text: (§5) Cell growth inhibition experiments initially focused on MCF-7, MCF-7/Adr, SK-HEP-1, and Hep G2 cancer cells as well as rat cardiomyocytes as a measure of cardiotoxicity and Vero cells (green monkey kidney cells) as an additional measure of normal cell toxicity. […]

[3] = test system: DU-145; experiment: Growth inhibition of DU-145 prostate cancer cells; format: cell-based; conditions: for Cell growth inhibition IC50, DU-145: 24 h drug treatment, crystal violet
Protocol: as §1
(§6) SHP-77 small cell lung cancer cells were also of interest because they express modest amounts of both enzymes. Inhibition of the growth of cardiomyocytes was used as a measure of cardiotoxicity, and inhibition of the growth of Vero cells, green monkey kidney cells, was again used as another measure of toxicity to normal cells.
as §4, with “Cells were treated with drug for 3 h and colony growth was measured at 3 to 5 days when cells reached about 80% confluence.” left out

[4] = test system: H9c2(2-1) rat cardiomyocytes; experiment: Growth inhibition of rat cardiomyocytes as a measure of cardiotoxicity; format: cell-based; conditions: for Growth inhibition IC50, H9c2(2-1), 24 h: 24 h drug treatment, crystal violet
Protocol: Biological activity of simple Doxazolidine carbamates. Since the prodrug carbamates were designed to be activated by carboxylesterases CES1 (hCE1) and/or CES2 (hiCE), cell lines of interest were measured for expression of the respective mRNAs using reverse transcription (RT) followed by PCR (polymerase chain reaction). Cancer cell lines investigated included SHP-77 resistant small cell lung, DU-145 prostate, MCF-7 sensitive breast, MCF-7/Adr resistant breast, SK-HEP-1 liver, and Hep G2 liver cells. As a measure of possible cardiotoxicity, H9c2(2-1) rat cardiomyocytes were also investigated. Cardiotoxicity is relevant because the ultimate product of metabolism and subsequent hydrolysis of these carbamates is doxorubicin, which is cardiotoxic. […] Additionally, the rat cardiomyocytes, H9c2(2-1), also express more CES2 than CES1.
Cell growth inhibition experiments initially focused on MCF-7, MCF-7/Adr, SK-HEP-1, and Hep G2 cancer cells as well as rat cardiomyocytes as a measure of cardiotoxicity and Vero cells (green monkey kidney cells) as an additional measure of normal cell toxicity. The butyl and pentyl carbamates inhibited the growth of MCF-7, MCF-7/Adr, and SK-HEP-1 cell lines with a 24 h drug treatment period with some selectivity for cancer cells over cardiomyocytes relative to growth inhibition by Dox as shown in Table 2. […] The relative inactivity of the ethyl carbamate may indicate that a substantial lipophilic interaction is required at the active site of the carboxylesterases to hold the Doxaz substrate.
Biological activity of Doxazolidine carbamates with self-eliminating spacer. […] SHP-77 small cell lung cancer cells were also of interest because they express modest amounts of both enzymes. Inhibition of the growth of cardiomyocytes was used as a measure of cardiotoxicity, and inhibition of the growth of Vero cells, green monkey kidney cells, was again used as another measure of toxicity to normal cells. They also show more activity against the cancer cells that express higher levels of CES1. Of particular note is the higher activity against Hep G2 cells than against SK-HEP-1 cells. […] The low toxicity of pentyl PABC-Doxaz to cardiomyocytes relative to the toxicity of Dox is encouraging and consistent with the low level of expression of CES1 in cardiomyocytes.
A more thorough characterization of the growth inhibition of a variety of cancer cells as well as rat cardiomyocytes by Formula IV (aFK-PABC-Doxaz) was evaluated in comparison with inhibition of growth by Doxaz, Dox and aFK-PABC-Dox. Cells were treated with drug for 3 h and colony growth was measured at 3 to 5 days when cells reached about 80% confluence. The cancer cells included one prostate cancer cell line (DU-145), three related breast cancer cell lines (MCF-7, MCF-7/Adr, and MCF-7 uPA), and one pancreatic cancer cell line (Mia PaCa-2). The breast cancer cell lines represent the multi-drug resistant (MDR) phenotype with MCF-7/Adr cells and a cell line that is transfected with the gene for urokinase plasminogen activator (uPA), the primary enzyme responsible for cleavage of plasminogen to plasmin. Rat cardiomyocytes served as a model for comparison of drug cardiotoxicity. Growth inhibition was also measured with added plasmin. aFK-PABC-Doxaz inhibited the growth of most of the cancer cells 0.5 log or more better than did aFK-PABA-Dox. Although not as dramatic, this differential response paralleled the differential response between Doxaz and Dox which is approximately two logs except for the MDR expressing, MCF-7/Adr cells which show more than three logs differential response. […] Addition of 0.01 unit/mL of plasmin has no effect on the activity of Dox but increases the activity of both aFK-PABC-Doxaz and aFK-PABC-Dox, in some cases by more than a log. Addition of 0.01 unit/mL plasminogen increases the activity of aFK-PABC-Doxaz on average by 0.3 log. […]

[5] = test system: SHP-77; experiment: Growth inhibition of SHP-77 small cell lung cancer cells; format: cell-based; conditions: 24 h drug treatment; crystal violet
Source text: as §6

[6] = test system: Hep G2; experiment: Growth inhibition of Hep G2 liver cancer cells; format: cell-based, human; conditions: crystal violet; for Growth inhibition IC50, Hep G2, 24 h: 24 h drug treatment
Source text: as §5

[7] = test system: Vero cells; experiment: Growth inhibition of Vero cells as a measure of normal cell toxicity (MTT); format: cell-based, green monkey; conditions: 24 h drug treatment
Source text: as §2, §6

[8] = test system: MCF-7/Adr; experiment: Growth inhibition of multidrug resistant MCF-7/Adr breast cancer cells (crystal violet); format: cell-based; conditions: for Growth inhibition IC50, MCF-7/Adr, 24 h: 24 h drug treatment; for IC50: read-out: IC50 MCF-7/Adr
Protocol: as §1, §2, §3, §4

[9] = test system: MDA-MB-435; experiment: Growth inhibition of MDA-MB-435 breast cancer cells; format: cell-based; conditions: 3 h drug treatment, growth at 5 days; read-out: IC50 MDA-MB-435
Protocol: In vitro Activity. […] This cell suspension was dispensed in 200 μL aliquots (1000 cells/well) into the inside wells of 96-well tissue culture plates. Outside wells contained 200 μL of media. […] The medium was replaced with 90 μL of growth medium prior to addition of the drug. Doxaz was dissolved in DMSO at concentrations ranging from 50 μM to 1 mM. […] Serial dilutions (1:3 and 1:10) were made in sterile DMSO to yield seven solutions of decreasing drug concentration at 100× the respective working concentrations. […] Additionally, two lanes were treated with 10 μL of growth medium containing 10% sterile DMSO and one lane was treated with 90 μL of 1.5 M Tris HCl. The cells were incubated at 37° C. for 3 h, at which time the drug solutions were replaced with 200 μL of fresh growth medium.
as §3

[10] = test system: cancer cells; conditions: background statement; cited from earlier work
[11] = 24 h drug treatment, crystal violet
[12] = 3 h drug treatment, crystal violet

| SMILES | Growth inhibition IC50, MCF-7, 24 h [1, 11] | Growth inhibition IC50, SK-HEP-1, 24 h [2] | Cell growth inhibition IC50, DU-145 [3] | Growth inhibition IC50, H9c2(2-1), 24 h [4] | Cell growth inhibition IC50, SHP-77 [5] | Growth inhibition IC50, Hep G2, 24 h [6] | Growth inhibition IC50, Vero, 24 h [7] | Growth inhibition IC50, MCF-7/Adr, 24 h ([8]; crystal violet) | also measured |
| --- | --- | --- | --- | --- | --- | --- | --- | --- | --- |
| CCCCOC(=O)N1COC2C(C)OC(OC3CC(O)(C(=O)CO)Cc4c(O)c5c(c(O)c43)C(=O)c3c(OC)cccc3C5=O)CC21 (centres unmarked) [Doxaz Butyl Carbamate] | −6.1 ± 0.04 log of the molar concentration | −6.4 ± 0.2 log of the molar concentration | −6.4 ± 0.02 log of molar concentrations | −5.8 ± 0.2 log of the molar concentration | −6.6 ± 0.3 log of molar concentrations | −6.7 ± 0.3 log of the molar concentration | −6.3 ± 0.1 log of the molar concentration | −6.2 ± 0.3 log of the molar concentration |  |
| CCOC(=O)N1COC2C(C)OC(OC3CC(O)(C(=O)CO)Cc4c(O)c5c(c(O)c43)C(=O)c3c(OC)cccc3C5=O)CC21 (centres unmarked) [Doxaz Ethyl Carbamate] |  | >−6 log of the molar concentration |  |  |  | >−6 log of the molar concentration |  | >−5 log of the molar concentration | Growth inhibition IC50, MCF-7, 3 h [1, 12]: >−6 log of the molar concentration; IC50 ([1]; 24 h drug treatment, crystal violet, read-out: Growth inhibition IC50, MCF-7, 24 h): > 1000 nM; Growth inhibition IC50, SK-HEP-1, 3 h ([2]; 3 h drug treatment): >−6 log of the molar concentration; Growth inhibition IC50, H9c2(2-1), 3 h ([4]; 3 h drug treatment, MTT): −5.8 ± 0.2 log of the molar concentration; Growth inhibition IC50, Hep G2, 3 h ([6]; 3 h drug treatment): >−6 log of the molar concentration; Growth inhibition IC50, MCF-7/Adr, 3 h [8, 12]: −5.3 ± 0.04 log of the molar concentration |
| COc1cccc2c1C(=O)c1c(O)c3c(c(O)c1C2=O)C[C@@](O)(C(=O)CO)C[C@@H]3O[C@H]1C[C@H](N)[C@@H](O)[C@H](C)O1 [Epi, Epidoxorubicin, reference compound] |  |  |  |  |  |  |  |  | IC50 ([1]; Homo sapiens, MCF7, read-out: IC50 MCF-7, 3 h drug treatment, growth at 5 days): 200 nM; IC50 ([3]; Homo sapiens, DU-145, read-out: IC50 DU-145): 380 ± 52 nM; IC50 ([8]; Homo sapiens, NCI/ADR-RES): > 10000 nM |
| CCCCOC(=O)Nc1ccc(COC(=O)N2COC3C(C)OC(OC4CC(O)(C(=O)CO)Cc5c(O)c6c(c(O)c54)C(=O)c4c(OC)cccc4C6=O)CC32)cc1 (centres unmarked) [Butyl PABC-Doxaz] | −4.1 ± 0.3 log of the molar concentration | −5.8 ± 0.04 log of the molar concentration | −6.3 ± 0.3 log of molar concentrations | −7.2 ± 0.2 log of the molar concentration | −7.1 ± 0.1 log of molar concentrations | −7.7 ± 0.03 log of the molar concentration | −6.1 ± 0.08 log of the molar concentration | −5.9 ± 0.06 log of the molar concentration |  |
| COc1cccc2c1C(=O)c1c(O)c3c(c(O)c1C2=O)C[C@@](O)(C(=O)CO)C[C@@H]3O[C@H]1C[C@H](NCNC(=O)c2ccccc2O)[C@H](O)[C@H](C)O1 [DoxSF, doxsaliform, reference compound] |  |  |  |  |  |  |  |  | IC50 ([1]; 3 h drug treatment, growth at 5 days, read-out: IC50 MCF-7): 70 to 80 nM; IC50 [9]: 50 ± 9 nM; Less active than DoxF in cancer cell growth inhibition [10]: 50 fold; IC50 ([8]; 3 h drug treatment, growth at 5 days): 800 to 2000 nM |
